According to patent US20220395500A1, “SMALL MOLECULE ACTIVATORS OF INTERFERON REGULATORY FACTOR 3 AND METHODS OF USE THEREOF” (Neuralexo, Inc., priority 2020, published 2022):
Read-outs that look alike come from different tables or passages of the source.

Key:
[1] = system: IRF-Lucia luciferase reporter (ISRE) in THP1-Dual cells; assay: THP1-Dual IRF-Lucia luciferase reporter assay (ISRE activation); assay type: cell-based, human; details: for EC50: read-out: THP1 IRF EC50; for IRF3 and NF-κB reporter activity: human THP1 and mouse J774 macrophage-like cells
Method in brief: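 Supernatant luminescence from the ISG54/ISRE-driven Lucia reporter was measured after 24 h exposure to 10 μM compound (LPS 313 ng/mL in control wells).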

[2] = system: NF-κB-SEAP reporter in J774-Dual cells; assay: J774-Dual NF-κB-SEAP reporter assay; assay type: cell-based, mouse; details: read-out: J774 NFkB EC50
Method: First, optimal assay conditions and assay quality in 384-well format were determined. As mentioned, the mouse macrophage J774 cell line (J774-Dual, InvivoGen) stably transfected with the same inducible reporters described above (e.g., IRF-Lucia luciferase and NF-κB-SEAP) was used. The responsiveness of the J774-Dual cell line was investigated in an array of assay conditions to obtain sensitive and reproducible results for the activation of the IRF and NF-κB reporters. An optimal plating density and conditions for these cells was established for these cells in a 384-well format. Assay work-flow is similar to that discussed above for the THP1-Dual assay without a need for cell differentiation. Thus, cells are seeded directly in growth medium and incubated at 37° C. in a 5% C02 incubator for 24 hours prior to the programmed treatments being added as described herein.
The primary high throughput screen used the HTS platform of human THP1 monocyte cells containing the IRF-Lucia luciferase and NFκB-SEAP (secreted embryonic alkaline phosphatase) dual reporter (THP1-Dual, Invivogen), enabling the simultaneous study of the IRF and NFκB signaling pathways respectively. As discussed, the Lucia luciferase reporter gene is under the control of an ISG54 (interferon-stimulated gene) minimal promoter in conjunction with five interferon-stimulated response elements (ISRE). The SEAP gene is driven by an IFNβ minimal promoter fused to five copies of the NFκB consensus transcriptional response element and three copies of the c-Rel binding site. Both IRF-Lucia luciferase and NFκB-SEAP reporter proteins are secreted and readily measurable in the cell culture supernatant when using QUANTI-Luc™ and QUANTI-Blue™ detection reagents, respectively. Identified “hits” were confirmed in a secondary screen with an 8-point dose response curve. Hits were further screened for activity in the mouse using the mouse J774 macrophage-like cell line containing the identical reporter constructs (J774-Dual, Invivogen).
The OTRADI Small Molecule Library of approximately 246,000 diverse compounds (see below for description) was screened using the THP1-Dual based HTS platform described above. All transfer steps in the screen are fully automated, thus reducing variability. Primary screening included a single data point or dose for each molecule. After data normalization was applied for each assay run, “hit” selection was performed on the plates that pass the quality control (QC) criterion. Hits were defined as samples having values above the activity cutoff determined based on noise level of the assay to reduce false positive rates. In the pilot study discussed above this activity value was >3σ above the ISRE mean with the added criteria of NFκB activation being lower than […] from the mean to identify IRF selective compounds. The ratio of ISRE:NFκB activity was also calculated as a selectivity index for prioritizing hit selection. Primary hits underwent secondary screening to determine the 50% effective concentration (EC50) and 50% cytotoxic concentration (CC50) of these agents using an 8-point dose-response curve in the human THP1-Dual cells. Cytotoxicity was measured in the plate using Cell Titer Glo (Promega). Identified candidate compounds were further screened (orthogonal screen) for cross species activity in the validated mouse J774-Dual assay using an 8-point dose-response format to determine EC50 and CC50 values as well as ISRE:NFκB ratios. A general process flow for the experimental design laid out above is depicted at FIG. 12.

[3] = Homo sapiens, THP1-Dual, Human Reporter Cell Line, 8-point dose response
[4] = Mus musculus, J774, Mouse Reporter Cell Line J774
[5] = Homo sapiens, THP1-Dual, Human Reporter Cell Line THP1
[6] = Mus musculus, J774, Mouse Reporter Cell Line, 8-point dose response

SMILES	EC50 [1, 3]	EC50 [1, 5]	other results
COc1cccc(COc2ccc(C(=O)Nc3ccc(N4CCN(C(=O)c5cccs5)CC4)cc3)cc2)c1 [NA-24, 4-((3-methoxybenzyl)oxy)-N-(4-(4-(thiophene-2-carbonyl)piperazin-1-yl)phenyl)benzamide]	3.14 µM		
O=C(Nc1ccc(N2CCN(C(=O)c3cccs3)CC2)cc1)c1ccc(-c2ccccc2)nc1 [NA-41]	10.7 µM		
O=C(Nc1ccc(N2CCN(C(=O)c3cccs3)CC2)cc1)c1ccc(OCc2ccccc2)nc1 [NA-59]	~2.53 µM		EC50 [2, 6]: 4.37 µM
O=C(Nc1ccc(N2CCN(C(=O)c3cccs3)CC2)cc1)c1ccc(OCc2ccc(F)c(F)c2F)cc1 [NA-23]	1.71 µM		EC50 [2, 6]: ~2.53 µM
O=C(Nc1ccc(N2CCOCC2)c(C(=O)Nc2ccc(OCc3ccccc3)cc2)c1)c1cccs1 [NB-18]		2.23 µM	
O=C(Nc1ccc(N2CCN(C(=O)c3cccs3)CC2)cc1)c1cccc2c(Br)cccc12 [NA-21, 5-bromo-N-{4-[4-(2-thienylcarbonyl)-1-piperazinyl]phenyl}-1-naphthamide]	0.73 µM		EC50 [2, 6]: 1.05 µM
COc1ccc(C(=O)Nc2cc(-c3nc4ccccc4s3)ccc2C)cc1[N+](=O)[O-] [ND-38]			EC50 ([2]; Mouse Reporter Cell Line J774): 12 µM; EC50 ([1]; Human Reporter Cell Line THP1): 4.29 µM
O=C(Nc1ccc(N2CCN(C(=O)c3cccs3)CC2)cc1)c1ccc(Br)cc1 [NA-14]	~2.62 µM		
O=C(Nc1ccc(N2CCN(C(=O)c3cccs3)CC2)cc1)c1sc2cc(Cl)ccc2c1Cl [NA-20]	1.94 µM		EC50 [2, 6]: ~4.75 µM
Cc1ccc(NC(=O)c2cc(NC(=O)Cc3ccccc3)ccc2N2CCOCC2)cc1Cl [NB-3]		~1.57 µM	
O=C(Nc1ccc(N2CCN(C(=O)c3cccs3)CC2)cc1)c1ccc(-c2cc3ccccc3oc2=O)cc1 [NA-32]	1.43 µM		
O=C(Nc1ccc(N2CCN(C(=O)c3ccsc3)CC2)cc1)c1ccc(OCc2ccccc2)nc1 [NA-1]	1.94 µM		EC50 [2, 6]: ~3.19 µM
O=C(Nc1ccc(N2CCN(C(=O)c3cccs3)CC2)cc1)c1ccc(OCc2cccc(Cl)c2)cc1 [NA-33]	1.84 µM		EC50 [2, 6]: 3.81 µM
O=C(Nc1ccc(N2CCN(C(=O)c3cccs3)CC2)cc1)c1ccc(Cl)c2ccccc12 [NA13]	~1.55 µM		EC50 [2, 6]: ~2.86 µM
O=C(Nc1ccc(N2CCN(C(=O)c3cccs3)CC2)cc1)c1ccc(-c2ccccc2)cn1 [NA-39]	7.02 µM		
Cc1ccc(NC(=O)c2cc(NC(=O)c3cccs3)ccc2N2CCOCC2)cc1 [NB-17]		6.07 µM	EC50 [2, 4]: 8.79 µM
COc1ccc(C(=O)Nc2ccc(OCc3ccccc3)cc2)cc1[N+](=O)[O-] [NA-44]	4.45 µM		EC50 [2, 6]: 7.65 µM
CCOc1ccc(C(=O)Nc2ccc(N3CCN(C(=O)c4cccs4)CC3)cc2)cc1Br [NA-30]	2.68 µM		
Cc1ccc(NC(=O)c2cc(NC(=O)c3cccs3)ccc2N2CCOCC2)cc1Br [NB-23]		3.27 µM	EC50 [2, 4]: 9.53 µM
Cc1ccc(NC(=O)c2cc(NC(=O)c3cccs3)ccc2N2CCOCC2)cc1Cl [NB-8]		4.7 µM	
COc1ccc(C(=O)Nc2cc(-c3nc4cc(C)c(C)cc4o3)ccc2C)cc1[N+](=O)[O-] [ND-13, N-(5-(5,6-dimethylbenzo[d]oxazol-2-yl)-2-methylphenyl)-4-methoxy-3-nitrobenzamide]			IRF3 and NF-κB reporter activity ([1]; 8-point dose response): high IRF3 activity and low off-target NF-κB activation
O=C(Nc1ccc(N2CCN(C(=O)c3cccs3)CC2)cc1)c1ccc(-c2ccncc2)cc1 [NA-38]	~11.2 µM		
CCOc1cccc(COc2ccc(C(=O)Nc3ccc(N4CCN(C(=O)c5cccs5)CC4)cc3)cc2)c1 [NA42, 4-((3-ethoxybenzyl)oxy)-N-(4-(4-(thiophene-2-carbonyl)piperazin-1-yl)phenyl)benzamide]	3.6 µM		EC50 [2, 6]: 5.36 µM
Cc1ccc2c(=O)c3cccc(CC(=O)O)c3oc2c1C [DMXAA, 5,6-dimethylxanthenone-4-acetic acid]			ISRE activation in THP1-Dual cell line ([1]; THP1-Dual): not effective
Cc1ccc(NC(=O)c2cc(NC(=O)c3ccccc3)ccc2N2CCOCC2)cc1Cl [NB-1]		2.53 µM	EC50 [2, 4]: 19.9 µM
Cc1ccc(COc2ccc(C(=O)Nc3ccc(N4CCN(C(=O)c5cccs5)CC4)cc3)cc2)cc1 [NA-25]	3.29 µM		EC50 [2, 6]: 8.15 µM
COc1ccc(C(=O)Nc2cc(-c3nc4cc(C)c(C)cc4o3)ccc2C)cc1[N+](=O)[O-] [ND13, N-(5-(5,6-dimethylbenzo[d]oxazol-2-yl)-2-methylphenyl)-4-methoxy-3-nitrobenzamide]		0.975 µM	EC50 [2, 4]: 1.32 µM
CCOc1cccc(COc2ccc(C(=O)Nc3ccc(N4CCN(C(=O)c5cccs5)CC4)cc3)cc2)c1 [NA-42, 4-((3-ethoxybenzyl)oxy)-N-(4-(4-(thiophene-2-carbonyl)piperazin-1-yl)phenyl)benzamide]			IRF3 and NF-κB reporter activity ([1]; 8-point dose response): high IRF3 activity and low off-target NF-κB activation
Cc1c(Br)ccc(C(=O)Nc2ccc(N3CCN(C(=O)c4cccs4)CC3)cc2)c1C [NA-16]	6.46 µM		EC50 [2, 6]: 12.9 µM

Further lines, with some results ahead:

EC50 [1, 3]	EC50 [1, 5]	SMILES	other results
	~12.4 µM	COc1ccc(C(=O)Nc2nc(-c3cc4ccccc4oc3=O)cs2)cc1 [ND-1]	EC50 [2, 4]: 8.75 µM
7.98 µM		Cc1cc(NC(=O)c2sc3cc(Cl)ccc3c2Cl)ccc1NC(=O)c1ccco1 [NC-2]	
	~4.1 µM	COCOc1ccc2oc(-c3ccc(C)c([N+](=O)[O-])c3)nc2c1 [ND-96]	
	3.89 µM	COc1ccc(C(=O)Nc2cc(-c3nc4ccccc4s3)ccc2C)cc1[N+](=O)[O-] [ND52, N-[5-(1,3-benzothiazol-2-yl)-2-methylphenyl]-4-methoxy-3-nitrobenzamide]	EC50 [2, 4]: 7.53 µM
	1.12 µM	COc1ccc(C(=O)Nc2cc(-c3nc4cc(C(C)C)ccc4o3)ccc2C)cc1[N+](=O)[O-] [ND-2]	EC50 [2, 4]: 11.4 µM
	8.42 µM	O=C(Cc1ccc(Cl)cc1)Nc1cccc(-c2nnc(-c3ccco3)o2)c1 [ND-7]	EC50 [2, 4]: 30.6 µM
	14.7 µM	CC(C)CC(=O)Nc1ccc2oc(-c3cccc(I)c3)nc2c1 [ND-5]	
	0.59 µM	COCOc1ccc2oc(-c3ccc(C)c(NC(=O)c4ccc(OC)c([N+](=O)[O-])c4)c3)nc2c1 [ND-95, 4-methoxy-N-(5-(5-(methoxymethoxy)benzo[d]oxazol-2-yl)-2-methylphenyl)-3-nitrobenzamide]	EC50 [2, 4]: 3.01 µM
	10.6 µM	COc1ccc(C(=O)Nc2cccc(-c3nc4ncccc4o3)c2)cc1Br [ND-47]	EC50 [2, 4]: 9.71 µM
	3.12 µM	COc1ccc(-c2nc3cc(C(C)C)ccc3o2)cc1NC(=O)c1ccc(C)c([N+](=O)[O-])c1 [ND-16]	EC50 [2, 4]: 6.75 µM
	6.16 µM	Cc1ccc(-c2nc3ccccc3s2)cc1NC(=O)c1cccc(Cl)c1 [ND-80]	
	32.1 µM	ClCCCOc1ccc(-c2nc3cc(OCCCN4CCCC4)ccc3o2)cc1 [ND-94]	
